pEC50, pIC50: −log10 of the molar value.
Assays:
[1] = system: primary human fibroblasts (HDF) in hypoxic chamber; assay: sVEGF ELISA in primary fibroblasts under hypoxia; type: cell-based; conditions: 48 h
Excerpt: FIG. 9: USP7 inhibition decreases VEGF levels in fibroblasts under hypoxia.
In response to wounding and during tumour growth, activated fibroblasts secrete synthesizers and modifiers of the ECM but also soluble angiogenic growth factors such as VEGF. Although VEGF gene expression can be controlled by multiple transcription factors, its major regulator is hypoxia-inducible factor 1 (HIF-1). HIF-1 mediates activation of VEGF transcription in response to hypoxia in solid tumours and in various malignant cell lines.
To assess its potency in a functional assay, HDF were treated with vehicle or various concentrations of USP7 inhibitor ADC-159 and incubated for 48 hours in hypoxic chamber. Cell culture supernatants were collected, and secreted VEGF was measured by ELISA.
(§1) For the co-culture experiments, 5×10^4 cancer cells were seeded in transwell in 0.5 mL complete growth medium and placed on the top of 0.1×10^6 fibroblasts plated in 12-well in 1 mL low serum growth media overnight. Following day cancer cells were washed with PBS and media replaced with reduced (1%) serum growth media. 0.5×10^6 PBMC were plated on top of fibroblasts, incubated for 45 min and activated with CD3 (1 μg/ml final concentration) and CD28 (5 μg/ml final concentration). […] Monoculture experiments, 0.1×10^6 cells were seeded in 12-well in 1 mL of complete growth media (cancer cells) or low serum growth media (fibroblasts) and incubated overnight. […] Afterwards, cell culture media was collected, cell debris were removed by centrifugation the concentration of VEGF in the cell culture supernatants was measured using the human/mouse VEGF immunoassay Quantikine ELISA kit (R&D systems, Minneapolis, Minn., USA) according to the manufacturer's instructions. For the intracellular VEGF detection, total protein concentration was determined by BCA (Pierce Chemical, USA) and VEGF levels determined using the same kit described above.

[2] = system: immortalized lung fibroblasts (WI38-VA13); assay: sVEGF ELISA in immortalized fibroblasts; type: cell-based, human; conditions: SV-40 immortalized, destabilized p53
Protocol: FIG. 7: USP7 inhibition-mediated decrease in VEGF secretion is dependent on a functional p53 pathway.
as §1

[3] = system: HDF and HUVEC co-culture; assay: In vitro co-culture tube formation assay; type: cell-based, human; conditions: for tube formation, pre-formed tubes: treated after tube formation; for tube length, de novo tube formation: treated prior to tube formation, 14 days
Protocol: Representative pictures taken at day 14 are shown. Tube formation was quantified by measuring tube length ([…]) and is shown.
HDF were seeded in 96-well plate (2500 cells/well). Once HDF formed a monolayer, media was removed and HUVECs (2500 cells/well) were seeded on top of HDF. […] The effect on existing vessels was assayed by allowing tubes to form prior to treatment. Cells were treated every 3-days during 14 days of incubation, followed by washing with PBS and fixation with 4% formaldehyde for 15 min at room temperature (RT). Cells were permeabilized with 1× PBS containing 0.1% Triton X-100 for 5 min at RT and blocked 30 min in 1% BSA/PBS. Afterwards, cells were incubated with CD31 antibody (Thermo Fisher, MA5-13188) […] followed by incubation with secondary Alexa fluor 488F goat-anti-mouse (Thermo Fisher, A28175) at 1/2000 dilution for 3 h at RT. Immunolabeled samples were counterstained with Hoechst 33342 nuclear dye (Thermo Fisher, 62249) at 1/1000 dilution for 15 min. Tubes were visualized with IN Cell Analyzer 2000 using a 2× objective. Tube length was measured and quantified using the AngioTool software for each imaging session (available in the public domain at https://ccrod.cancer.gov/confluence/display/ROB2/Downloads

[4] = system: CT-26 mouse cancer cell line; assay: CT-26 cell viability in vitro; type: cell-based
Protocol: CT-26 syngeneic models are in vivo models to monitor the effect of compounds on the TME. […] After 72 hours cell viability was measured by CellTiter-Glo®.

[5] = system: MMP-7; assay: MMP-7 in supernatants of HDF invasion assay (Luminex); type: cell-based, human; conditions: invading HDF, 96 hours
Protocol: The scratch wound cell invasion assay was used to measure the ability of primary human fibroblasts to invade through Matrigel® basement membrane. Cell culture supernatants from invasion assay were collected after 96 hours and MMP-7 levels were measured using Luminex®.
To further explore whether USP7 inhibition modulates MMP levels in invading fibroblasts, cell culture supernatants from HDF invasion assay were collected and presence of various MMP was detected using Luminex® Multiplex assay.
Concentrations of MMP2 and MMP7 were determined in cell culture supernatants in triplicates using Luminex human cytokine/chemokine multiplex kits (Millipore, St. Charles, Mo., USA) according to the manufacturer's protocol.

[6] = system: primary human dermal fibroblasts (HDF) co-cultured with stimulated PBMCs, with or without cancer cells (HT29 or H1299); conditions: inhibitor concentration of 300 nM, 48 hours
Protocol: Biomarker changes relative to the vehicle control-treated systems are presented as log-transformed ratio.
BioMAP systems were employed using primary human cells. […] Human neonatal foreskin fibroblasts (HDFn) from 3 donors were pooled and cultured according to the supplier's (Lonza, Inc., Allendale, N.J.) recommendation. Peripheral blood mononuclear cells (PBMC) were prepared from buffy coats from normal human donors according to standard methods. Autoimmune HDFSAg system consisted of primary human dermal fibroblasts (HDF) co-cultured with PBMCs stimulated with T-cell receptor (SAg) to model chronic T cell activation and inflammation. Stromal Oncology Colorectal Cancer and Non-Small Cell Lung Cancer (NSCLC) panels were composed of cancer cells (HT29 or H1299), HDF and PBMCs stimulated with SAg. This model captures the interactions between tumour cells, stimulated immune cells and the host stromal network. […] Afterwards, biomarkers were measured in supernatants from co-cultures using ELISA as following: MCP-1, VCAM-1, Collagen I, IP-10, MMP-1, sIL-10, sIL-17A, sIL-17F, sIL-2, sIL-6, SRB, sTGFb, sTNFa, sVEGF, IL-8, MIG, MCSF, uPAR, Col-III, IP-10, EGFR, HGF, Pal-1, PBMC Cytotoxicity, tPA, uPA, sGranzyme, sPGE2, slFg, Sil-13, sMDC, Collagen III, MMP-9, TIMP-2, CEACAM5, Keratin 20. Biomarker levels are presented as log-transformed ratio

[7] = system: CT-26 tumours; assay: Flow cytometry of tumour infiltrating immune cells, CT-26 model (AD-04); type: in vivo, mouse; conditions: dosed 10 days
Protocol: FIG. 32: USP7 inhibition modulates the tumour microenvironment immune compartment. […] Flow cytometry analysis of tumour infiltrating immune cells in the CT-26 syngeneic model dosed with the USP7 inhibitor for 10 days.
Harvested tumours were collected in HBSS medium, minced and incubated 30 minutes at 37° C. in non-enzymatic cell dissociation buffer followed by mechanical dissociation through a 70 μm filter. Viable cells were then enriched using Ficoll® gradient. All cells suspensions were count and one million viable cells were seeded in 96-well plates in 100 μL of Staining Buffer for acquisition. Non-specific binding was performed using mouse FcR blocking reagent. Viobility 405/452 Fixable Dye (Miltenyi Biotec) was used to assess cell viability. The antibodies directed against the CD45, CD335 (Nkp46), FoxP3 CD8a, CD4, CD3e, CD19, F4/80, CD11c, CD11 b (Miltenyi Biotec), Ly6G and Ly6C (Biolegend) were added. The stained cells were analyzed with a Fortessa X20 cytometer (BD Biosciences).

[8] = target: 3A4 (Homo sapiens, UniProt P08684); assay: Cyp inhibition 3A4; type: in vitro ADME; conditions: read-out: Cyps: 3A4
3A4, sequence (P08684 whole entry): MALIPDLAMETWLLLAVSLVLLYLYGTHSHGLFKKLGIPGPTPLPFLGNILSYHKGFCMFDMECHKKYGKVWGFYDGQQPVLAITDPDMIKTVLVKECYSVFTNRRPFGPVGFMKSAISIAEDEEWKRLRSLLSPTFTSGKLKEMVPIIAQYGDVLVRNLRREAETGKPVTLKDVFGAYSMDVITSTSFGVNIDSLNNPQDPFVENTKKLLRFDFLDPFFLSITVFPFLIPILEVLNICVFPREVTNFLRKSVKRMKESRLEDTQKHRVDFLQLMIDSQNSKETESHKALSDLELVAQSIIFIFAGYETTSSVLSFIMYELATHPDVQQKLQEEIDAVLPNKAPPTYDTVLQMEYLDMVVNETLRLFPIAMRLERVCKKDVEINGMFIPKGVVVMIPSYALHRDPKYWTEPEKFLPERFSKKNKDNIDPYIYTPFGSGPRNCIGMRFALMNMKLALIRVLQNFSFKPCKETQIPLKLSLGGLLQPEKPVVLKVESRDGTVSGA

[9] = system: LNCaP; assay: LNCaP cell EC50; type: cell-based; conditions: Homo sapiens
[10] = PPB Fu (h); type: in vitro ADME; conditions: human, plasma
[11] = Hep CLhep (m); type: in vitro ADME, mouse
[12] = Oral availability; type: in vivo; conditions: compared to AD-04
[13] = PPB Fu (r); type: in vitro ADME; conditions: rat, plasma

Row | Compound | VEGF secretion under hypoxia [1] | VEGF secretion [2] | tube formation, pre-formed tubes [3] | tube length, de novo tube formation [3] | sensitivity of CT-26 cell line in vitro [4] | MMP-7 levels [5] | decrease in secreted VEGF (sVEGF) [6] [log fold] | CD4 lymphocytes among TILs [7] | cytotoxic T-lymphocytes among TILs [7] | macrophages in myeloid cell infiltrate [7] | pIC50 [8] | pEC50 [9] | fraction unbound [10] | Hep CLhep (m) [11] | oral availability [12] | fraction unbound [13]
1 | C[C@H](CC(=O)N1CCC(O)(Cn2cnc3c(-c4ccc(CN)cc4)n(C)nc3c2=O)CC1)c1ccccc1 [AD-04, (R)-3-(4-(Aminomethyl)phenyl)-6-((4-hydroxy-1-(3-phenylbutanoyl)piperidin-4-yl)methyl)-2-methyl-2H-pyrazolo[4,3-d]pyrimidin-7(6H)-one] | decreased in a dose-dependent manner | insensitive | significantly less pronounced | significant reduction | not sensitive | decreases | 3 | no significant change | significant increase | decrease |  |  |  |  |  | 
2 | CC1(C(=O)N2CCC(O)(Cn3cnc4c(cc(Cl)n4-c4ccc5c(c4)CCO5)c3=O)CC2)CC1 [ADC-159, 6-Chloro-7-(2,3-dihydrobenzofuran-5-yl)-3-((4-hydroxy-1-(1-methylcyclopropane-1-carbonyl)piperidin-4-yl)methyl)-3,7-dihydro-4H-pyrrolo[2,3-d]pyrimidin-4-One] | decreased VEGF levels in a dose-dependent manner |  | did not have significant effect | inhibitory effect | not sensitive |  |  |  |  |  | < 4.70 | 7.12 | 0.15 | 78 | improved oral availability | 0.12

Source: patent US20230088286A1, “USP7 INHIBITOR FOR USE IN THE TREATMENT OF CANCER” (ALMAC DISCOVERY LIMITED, priority 2020, published 2023)
